This passage reports melting point results from a melting point compilation (Tetko et al.; mined from patent text by program, amines drawn as free bases though some values may be those of a salt).

Bounds are passed on as bounds.

For `O=C(OCN1C(=O)CN(CCN2CC(=O)N(COC(=O)c3ccc4c(c3)OCO4)C(=O)C2)CC1=O)c1ccc2c(c1)OCO2`, the melting point is 195 to 198 °C. In the case of `CN1CS(=O)c2cccc(F)c21` (stereo not given), the melting point fell in the range of 122 to 124 °C. Next, `CCOC(=O)C1=C(N)NC2=C(C(=O)CCC2)C1c1cccc(C(=O)OCC)c1` (stereo not given): 234 °C; `CCCc1nc(SSc2nc(CCC)n(-c3ccc([N+](=O)[O-])cc3)n2)nn1-c1ccc([N+](=O)[O-])cc1`: 172 °C. To `N#Cc1ccc(-c2ccc(-c3cn4cc(C#N)ccc4n3)cc2)cc1` belongs 276 to 278 °C; to `CC(=O)NNc1nc(C(F)(F)F)nc(-c2ccccc2)c1-c1ccccc1`, 113 to 116 °C; to `OCc1cn(Cc2ccc(OCc3ccccc3)cc2)cc1-c1ccccc1`, 122 to 123 °C.

With `CCO[C@H]1c2ccc3c(nc(C)n3C)c2N[C@H](c2ccccc2)[C@H]1O`, the melting point was 170 °C.

`Brc1ccc(SCc2noc(CSc3ccc(Br)cc3)n2)cc1` gave a melting point of 80 °C. The compound `COc1cc(OC)nc(NS(=O)(=O)C(C#N)C(C)C)n1` (stereo not given) registered a melting point of 91 to 93 °C. As to `CC(=O)Nc1ccc(C=CC(=O)N2CCc3c([nH]c4ccccc34)C2c2ccc3c(c2)OCO3)cc1` (stereo not given), the melting point turned out to be 185 °C. In turn, `O=C(Nc1ccccc1Oc1ccccc1-c1nnn[nH]1)c1ccc(OCc2ccc3ccccc3n2)cc1` came in with a melting point of 224 to 226 °C. To `O=C(O)c1cccc2c1sc1ccccc12` belongs 253 to 255 °C; to `CC(C)Oc1ccc(SCCSc2ccc(OC(C)C)cc2)cc1`, 115 to 116 °C; to `CC(C)[Si](OCCOc1cc(CO)ccc1Br)(C(C)C)C(C)C`, 62.2 °C. `OCC12CCCN(CC1)C2` (stereo not given) had a melting point of 44 to 47 °C.

As to `CC(C)(C)OC(=O)[C@@H]1C[C@H](C(=O)OC(C)(C)C)N1`, the melting point lay in the range of 47 to 48.5 °C. In turn, `COP(=O)(Cc1nc(C)c(C)o1)OC` gave a melting point of 54 to 57 °C. `Cn1c(O)nc2cc3c(cc21)C(C)(C)C(=O)N3` registered a melting point of 364 to 367 °C. With `O=C1Cc2cc3c(cc2C(c2ccc([N+](=O)[O-])cc2)=NN1)OCO3`, the melting point was in the range of 293 to 295 °C. To `CC1(C)CC(=O)C(c2ccc([N+](=O)[O-])cc2Cl)C(=O)C1` belongs 250 to 253 °C. To `CNS(=O)(=O)c1ccc(NN=C2C(=O)Nc3ccc(C(N)=O)cc32)cc1` belongs greater than 250 °C. Compound `NC(N)=Nc1nc(-c2ccc(C(=O)NC(=O)c3cccnc3)o2)cs1` came in with a melting point of 217 °C. On to `CNC(=O)Oc1ccc(S(C)(=O)=O)c2c1CCCC2`, for which the melting point lay in the range of 162 to 164 °C. `O=C(COc1ccccc1)Nc1ccc(CN2C(=O)[C@H]3CCC[C@H]3N(C(=O)CN3C(=O)c4ccccc4C3=O)c3ccccc32)cc1` (relative stereo) registered a melting point of 134 to 137 °C. Next, `Cc1cc2occc2c(N2CCN(CC[C@H]3CC[C@H](NC(=O)CC4CCOCC4)CC3)CC2)n1`: 212 °C; `COc1ccc(CNc2nc(CCCC(=O)O)nc3oc4c(c23)CCCC4)cc1Cl`: 205 °C. Regarding `CCn1cc(C(=O)O)c(=O)cc1-c1ccccc1`, the melting point lay in the range of 166 to 167 °C.

In turn, `CCOC(=O)c1ccc(NC=CS(=O)(=O)F)cc1` registered a melting point of 110 to 112 °C. With `CC1(N2C(=O)c3cccc(N)c3C2=O)CCC(=O)NC1=O` (stereo not given), the melting point fell in the range of 268 to 269 °C.

In turn, `COP(=O)(Nc1ccc(N)cc1)OC` displayed a melting point of 125 °C. The compound `COc1ccccc1N1CCN(Cc2ccccc2CCC(=O)O)CC1` had a melting point of 155 to 158 °C. `CCOC(=O)C1CCc2c(oc3ccc(C(N)=O)cc23)C1` (stereo not given): the melting point fell in the range of 206 to 208 °C. Compound `CC(CC#CCN1CCN(C)CC1)C(=O)N1c2ccccc2C(=O)Nc2cccnc21` (stereo not given) yielded a melting point of 212 to 214 °C.

For the compound `Cc1cc(O)c(N)c([N+](=O)[O-])c1C`, the melting point lay in the range of 176 to 178 °C. In the case of `C=CCNc1nc(NCCCC)c2scc(C)c2n1`, the melting point lay in the range of 68 to 70 °C. To `Nc1ccc2cnc(Nc3ccc(F)cc3)nc2n1` belongs 245 to 248 °C; to `CCOC(=O)/C=C/c1cn(-c2ccc(C(F)(F)F)cc2)nc1C(C)C`, 118 to 119 °C. To `Cc1ccc2c(c1)c1c(n2CCBr)C(=O)CCC1` belongs 102 to 103 °C.

Consider `COc1ccc2c(CC3=C(CC(=O)O)CCC3=O)cccc2c1C(F)(F)F`, for which the melting point was 59 to 61 °C. To `Cc1c(C(=O)Nc2ccc(N3CCC(O)CC3)c(C#N)c2)cnn1-c1ccccc1` belongs 182 °C. Consider `COC(=O)c1nn(C)nc1C=O`, for which the melting point is 107 to 108 °C. With `O=CC=C(c1ccc(F)cc1)c1ccc(F)cc1`, the melting point is 56 to 58 °C. In turn, `CC(=O)c1c(-c2ccccc2)nn(CC2CC2)c(=O)c1Nc1cccc2cccnc12` had a melting point of 123 to 125 °C.

As for `CC1Cc2cc(-n3ccnc3)ccc2C1=O` (stereo not given), the melting point was 103 to 106 °C.

`N[C@@H](CCC1CCCCC1)C(=O)O`: the melting point was in the range of 265 to 266 °C. The compound `CC(C)(CSc1ccc(Cl)cc1)C(Cn1ccnc1)=NO` returned a melting point of 125 to 126 °C.

With `Cc1cc(S(=O)(=O)N2c3ccc(Br)cc3-c3ccccc3C2C)ccc1O` (stereo not given), the melting point lay within 193 to 195 °C. To `Nc1c(N=O)c(=O)n(CCC2=CCCCC2)c(=O)n1CCC1=CCCCC1` belongs 220 to 222 °C; to `COC(OC)c1cc(O)cc(Cl)c1`, 153 °C. Regarding `CCCCC(=O)Nc1ccc([N+](=O)[O-])cc1Cl`, the melting point fell in the range of 80 to 95 °C. Compound `O=C(NCCO)c1cccc(-c2ccc3c(n2)N(c2ccc(Cl)cc2Cl)CC3)c1` showed a melting point of 168 to 169 °C. Next, `NC(=O)c1ncn2c1[C@@H]1CCN1C(=O)c1ccccc1-2`: 228 to 230 °C. To `O=CNNc1ccc(NC(=S)N2CCCC2)cc1` belongs 199 to 201 °C; to `COC(=O)c1ccccc1C(=O)OCC1CN(C(=O)Oc2ccccc2)CCC1c1ccc(F)cc1` (stereo not given), 139 to 141 °C; to `COc1ccc2c(c1)CCNC2=O`, 128 to 130 °C. For the compound `CC(=O)NC1CC(C)(C)N(OCc2cccc(C)c2)C(C)(C)C1`, the melting point lay within 163 to 164 °C. Next, `Cn1cc(C(=O)O)c(=O)c2c3ccc(F)c(N4CCN(c5cccc(C(F)(F)F)c5)CC4)c3ncc21`: 261 °C; `CS(=O)(=O)c1ccc(Oc2cccc(C(=O)Nc3ccc(F)cc3)n2)cc1`: 134 to 135 °C; `CCOC(=O)c1cc2cccnc2n1Cc1ccccc1`: 71 to 72 °C.

As to `Cc1nc(-c2ccc([C@H]3CN(c4nc(-c5ccncn5)cc(=O)n4C)CCO3)cc2)no1`, the melting point came out at 191 °C. Compound `O=C(CNc1ccccc1)OC1CCCCC1` gave a melting point of 50 °C. `Cn1nnc2c(N3CCNCC3)ncnc21` registered a melting point of 95 to 96 °C. Next, `CCOC(=O)C1CCN(C(=O)COc2cc(-c3ccccc3)nc3ccccc23)CC1`: 120 °C. Next, `CC(C)c1cccc(COCCCO)c1NC(=O)CC1c2ccccc2Oc2ccccc21`: 150 to 151 °C; `C#CCOc1c(OC)cccc1-c1nc2ncccc2[nH]1`: 238 °C; `COc1ccc(NC(=O)c2ccc(F)cc2)cc1`: 171 to 172 °C.

Take `O=C(O)CCC1=C(n2nc(-c3c(-c4ccccc4)nn4ccccc34)ccc2=O)CCCC1`: the melting point was in the range of 184 to 185 °C. To `CCCCCCCCCCCc1nnc2n1-c1sc(CC)cc1C(c1ccc(O)cc1)=NC2` belongs 164 to 166 °C.

The compound `CCC(=O)NCCC1=CCc2ccc(OC)cc21` gave a melting point of 61 to 63 °C. The compound `CS(=O)(=O)N(c1cc(F)c(F)cc1C#N)S(C)(=O)=O` showed a melting point of 144 °C. Next, `Cc1noc([C@H]2CC[C@@](C)(NCC(=O)N3C[C@@H](F)C[C@H]3C#N)C2(C)C)n1`: 147 to 151 °C; `COc1cc2c3c4c(c(-c5ccccc5)cc3n(C)c2cc1OS(=O)(=O)C(F)(F)F)C(=O)NC4=O`: 244 to 246 °C; `CC1(c2ccccc2)Cc2cc(O)c(Cl)c(Cl)c2C1O` (stereo not given): 163 to 165 °C. `COCOc1ccccc1-c1cc(-c2cccc(C(=O)OC)c2OC)c(C#N)c(NC(=O)c2ccco2)n1`: the melting point is 140 to 141 °C. For `CCc1[nH]c(=S)[nH]c1-c1cc(C(C)(C)C)c(O)c(C(C)(C)C)c1`, the melting point lay in the range of 279 to 281 °C.

Turning to `CCOC(=O)CCC(=O)Nc1cc(OC)c(OC)cc1C(=O)OCC`, the melting point was found to be 125 °C. `O=C(Nc1ccccc1)c1ccc(F)c(Nc2ccccc2)c1`: the melting point lay within 132 to 133 °C.

In turn, `CCC(C)(C)NC(=S)Nc1cc(F)cc(Cl)c1` showed a melting point of 116 to 118 °C. Consider `COCc1c(C#CBr)ncc2[nH]c3cccc(OCc4ccccc4)c3c12`, for which the melting point is 160 °C. In turn, `CC(C)(C)OC(=O)NNc1ccc(NC(=O)OC(C)(C)C)cc1` came in with a melting point of 155 °C. Next, `CCCCOc1cc(C2(C)CNC(=O)O2)ccc1OC` (stereo not given): 108 to 109 °C; `OCc1nc2cc(Cl)cnc2[nH]1`: 209 to 211 °C; `CC1(CF)C(=O)N(c2ccc(C#N)c(C(F)(F)F)c2)C(=O)N1CCF` (stereo not given): 137 to 138 °C.

Consider `COc1ccc(CNc2n[nH]cc2C)cc1OC1CCCC1`, for which the melting point lay within 76 to 77 °C.

On to `CN1CCN(c2cc(Cl)cc3c2c(=O)n(Cc2cccc(F)c2)c(=O)n3Cc2ccccc2)CC1`, for which the melting point fell in the range of 148 to 150 °C. To `Nc1ccc(C(=O)OC2CCN(Cc3ccccc3)CC2)cc1` belongs 119 to 120 °C. To `COc1ccccc1NC(=O)Nc1nc(Nc2ccccc2-c2ccccc2)nc(N(CCC(=O)O)Cc2ccc(C(F)(F)F)cc2)n1` belongs 125 to 128 °C; to `Cc1cccc(C(=O)Nc2nc3ccccc3c(NCc3ccccc3)c2C#N)c1`, 230 °C; to `Cc1c(C)c(N2CCN(c3ccc(F)cc3)CC2)c(C)c2c1OC(C)(C)C2=O`, 176 to 179 °C.

In general, melting point refers to the temperature of the solid-liquid transition.
